Measured values taken from ChEMBL document CHEMBL1212877, “Multipotent drugs with cholinergic and neuroprotective properties for the treatment of Alzheimer and neuronal vascular diseases. I. Synthesis, biological assessment, and molecular modeling of simple and readily available 2-aminopyridine-, and 2-chloropyridine-3,5-dicarbonitriles” (Bioorg Med Chem, 2010).
Where “and” joins values, the source holds several entries; their conditions need not be identical. Identical values can stand only once.

Legend:
Butyrylcholinesterase = Butyrylcholinesterase (Equus caballus, UniProt Q9N1N9); test: Inhibition of equine serum BuChE after 10 mins by Ellman's method
Chain of Butyrylcholinesterase (Q9N1N9 whole entry): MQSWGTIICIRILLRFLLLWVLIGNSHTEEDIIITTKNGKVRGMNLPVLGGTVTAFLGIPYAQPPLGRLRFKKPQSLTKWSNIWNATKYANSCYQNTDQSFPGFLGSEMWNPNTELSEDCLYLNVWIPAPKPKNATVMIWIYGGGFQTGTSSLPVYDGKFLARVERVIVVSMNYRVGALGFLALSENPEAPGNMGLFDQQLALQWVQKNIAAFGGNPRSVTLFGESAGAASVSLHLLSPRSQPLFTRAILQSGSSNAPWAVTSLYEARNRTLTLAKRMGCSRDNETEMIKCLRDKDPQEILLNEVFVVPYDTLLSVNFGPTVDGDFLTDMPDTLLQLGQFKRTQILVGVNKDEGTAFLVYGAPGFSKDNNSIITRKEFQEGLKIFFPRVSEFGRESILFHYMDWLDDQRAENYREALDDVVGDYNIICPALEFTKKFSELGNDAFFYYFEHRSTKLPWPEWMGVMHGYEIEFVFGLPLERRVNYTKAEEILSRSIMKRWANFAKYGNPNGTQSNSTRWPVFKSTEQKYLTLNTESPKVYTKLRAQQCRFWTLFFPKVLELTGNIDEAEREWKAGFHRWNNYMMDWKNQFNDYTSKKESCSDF

SH-SY5Y [1] = test: Neuroprotective activity in human SH-SY5Y cells assessed as protection against rotenone/oligomycin-A-induced cell death at 1 uM after 24 hrs by MTT assay relative to control; assay type: functional
Acetylcholinesterase [2] = biological target: T1, Acetylcholinesterase (Electrophorus electricus, UniProt O42275); test: Inhibition of Electrophorus electricus AChE after 10 mins by Ellman's method
T1 sequence (O42275 whole entry): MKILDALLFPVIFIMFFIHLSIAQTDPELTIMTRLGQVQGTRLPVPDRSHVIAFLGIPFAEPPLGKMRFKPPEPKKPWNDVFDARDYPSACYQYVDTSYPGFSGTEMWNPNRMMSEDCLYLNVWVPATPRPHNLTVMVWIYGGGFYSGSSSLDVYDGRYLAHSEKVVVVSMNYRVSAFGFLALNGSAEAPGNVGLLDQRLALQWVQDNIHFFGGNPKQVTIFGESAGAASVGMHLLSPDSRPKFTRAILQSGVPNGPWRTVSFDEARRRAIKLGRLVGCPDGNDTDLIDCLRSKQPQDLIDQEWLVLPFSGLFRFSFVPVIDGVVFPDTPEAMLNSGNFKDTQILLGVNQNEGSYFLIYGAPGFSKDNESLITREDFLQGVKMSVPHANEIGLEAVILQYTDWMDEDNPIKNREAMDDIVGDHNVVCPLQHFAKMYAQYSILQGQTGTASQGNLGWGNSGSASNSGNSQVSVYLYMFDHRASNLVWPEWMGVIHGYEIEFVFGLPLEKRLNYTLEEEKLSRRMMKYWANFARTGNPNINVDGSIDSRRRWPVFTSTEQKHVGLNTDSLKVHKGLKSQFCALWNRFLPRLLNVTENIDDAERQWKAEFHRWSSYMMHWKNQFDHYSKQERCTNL

SH-SY5Y [3] = test: Neuroprotective activity in human SH-SY5Y cells assessed as protection against rotenone/oligomycin-A-induced cell death at 1 uM after 24 hrs by LDH release assay relative to control; assay type: functional
Acetylcholinesterase [4] = biological target: T1, Acetylcholinesterase; test: Binding affinity to Electrophorus electricus AChE peripheral anionic site
Acetylcholinesterase [5] = biological target: T1, Acetylcholinesterase; test: Non competitive inhibition of Electrophorus electricus AChE by Lineweaver-Burke plot analysis

Structure (SMILES)	IC50 (Butyrylcholinesterase) [µM]	Activity (SH-SY5Y [1]) [%]	IC50 (Acetylcholinesterase [2]) [µM]	Activity (SH-SY5Y [3]) [%]	Ki (Acetylcholinesterase [4])	Ki (Acetylcholinesterase [5]) [µM]
N#Cc1c(Cl)nc(N2C3CCC2CC3)c(C#N)c1-c1ccccc1	> 100	12.9	> 100			
C#CCNc1nc(N)c(C#N)cc1C#N	> 100	17.7	> 100			
N#Cc1cc(C#N)c(N2CCC(Cc3ccccc3)CC2)nc1N	> 100	19.1	> 100			
CN(C)c1nc(Cl)c(C#N)c(-c2ccccc2)c1C#N	> 100	0	10			
CCOc1nc(N)c(C#N)cc1C#N	> 100	32.9	> 100	10.9		
N#Cc1cc(C#N)c(N2CCC(O)CC2)nc1N	> 100	3	> 100	15.1		
N#Cc1c(N)nc(Sc2ccccc2)c(C#N)c1-c1ccccc1	> 100	11.2	> 100	3.84		
CN(C)c1nc(N)c(C#N)c(-c2ccccc2)c1C#N	> 100	0	> 100			
COc1nc(N)c(C#N)cc1C#N	> 100	11	> 100			
N#Cc1c(N)nc(N2CCCCC2)c(C#N)c1-c1ccccc1	> 100	2.7	> 100	10.7		
CN(C)c1nc(N)c(C#N)cc1C#N	> 100	12.9	22.7	36.2		
N#Cc1c(Cl)nc(N2CCCCC2)c(C#N)c1-c1ccccc1	> 100	0	> 100			
N#Cc1cc(C#N)c(NCCO)nc1N	> 100	21.4	> 100	3		
N#Cc1cc(C#N)c(N2CCCC2)nc1Cl	> 100	7.5	0.8	32		
N#Cc1cc(C#N)c(OCCCc2ccccc2)nc1N	> 100	0	> 100			
N#Cc1c(N)nc(N2C3CCC2CC3)c(C#N)c1-c1ccccc1	3.8	0.7	> 100			
CC[N+](C)(CC)CCC[n+]1c(-c2ccccc2)c2cc(N)ccc2c2ccc(N)cc21 [PROPIDIUM]					8.6 µM and 8.9 µM	
CN(C)c1nc(Cl)c(C#N)cc1C#N	> 100	6	5			
N#Cc1c(N)nc(S)c(C#N)c1-c1ccccc1	> 100	5.8	> 100	14.1		
N#Cc1cc(C#N)c(N2C3CCC2CC3)nc1Cl	24	7.5	75	31.6		
N#Cc1cc(C#N)c(N2CCCCC2)nc1Cl	> 100	14.7	9.5			17.2
N#Cc1cc(C#N)c(N2C3CCC2CC3)nc1N	> 100	0	> 100			
N#Cc1c(N)nc(NCc2ccccc2)c(C#N)c1-c1ccccc1	> 100	10.6	> 100			
N#Cc1c(Cl)nc(N2CCCC2)c(C#N)c1-c1ccccc1	> 100	7.5	5.6	37.7		
N#Cc1cc(C#N)c(N2CCCCC2)nc1N	26	10.2	> 100	14.8		
N#Cc1cc(C#N)c(N2CCCC2)nc1N	> 100	20.1	3.5			
